Reference: patent US6069160A, “Heteroatom-containing benzocyclopentane-oxazolidinones” (Bayer Aktiengesellschaft, priority 1995, dated 2000)
Converted amounts (≈) assume the structure as drawn. Like-named read-outs stand apart in the source and are kept apart here. Blank lines part the entries; values can stand above or below the compound they belong to.

How the values were obtained:
Type in all cases: cell-based
[1] = test system: Staph. 9TV; assay: MIC by series dilution method
Procedure: (§1) The minimum inhibitory concentration (MIC) were determined by a series dilution method on Iso-Sensitest agar (Oxoid). For each test substance, a series of agar plates each comprising concentrations of the active compound decreasing by double dilution in each case was prepared. The agar plates were inoculated with a multipoint inoculator (Denley). Overnight cultures of the pathogens which had been diluted beforehand such that each inoculation point comprised about 10^4 colony-forming particles were used for the inoculation. The inoculated agar plates were incubated at 37° C. and the germ growth was read off after about 20 hours. The MIC value (μg/ml) indicates the lowest active compound concentration at which no growth was detectable with the naked eye. […]

[2] = test system: Staph. 133; assay: MIC by series dilution method
Procedure: as §1

[3] = test system: Staph. 48N; assay: MIC by series dilution method
Procedure: as §1

[4] = test system: Staph. 25701; assay: MIC by series dilution method
Procedure: as §1

[5] = test system: Klebs. 57 USA; assay: MIC by series dilution method; settings: 37° C., about 20 hours
Procedure: (§2) The minimum inhibitory concentration (MIC) were determined by a series dilution method on Iso-Sensitest agar (Oxoid). For each test substance, a series of agar plates each comprising concentrations of the active compound decreasing by double dilution in each case was prepared. The agar plates were inoculated with a multipoint inoculator (Denley). Overnight cultures of the pathogens which had been diluted beforehand such that each inoculation point comprised about 10^4 colony-forming particles were used for the inoculation. The inoculated agar plates were incubated at 37° C. and the germ growth was read off after about 20 hours. The MIC value (μg/ml) indicates the lowest active compound concentration at which no growth was detectable with the naked eye.

[6] = test system: Psdm. Bonn; assay: MIC by series dilution method; settings: 37° C., about 20 hours
Procedure: as §2

[7] = test system: E. coli Neumann; assay: MIC by series dilution method; settings: Escherichia coli
Procedure: as §2

[8] = test system: Mycobacterium smegmacis DSM 43465; assay: MIC in microtiter plates (Mycobacterium); settings: DSM43465, 37° C., 3 to 5 days
Procedure: (§3) The microtiter plates were incubated at 37° C. and read off after about 20 hours (Staph) or after 3 to 5 days (Mycobacterium). The MIC value (μg/ml) indicates the lowest concentration of active substance at which no growth was detectable.

[9] = test system: Mycobacterium smegmacis DSM 43061; assay: MIC in microtiter plates (Mycobacterium); settings: DSM43061, 37° C., 3 to 5 days
Procedure: as §3

[10] = test system: Mycobacterium smegmacis DSM 43464; assay: MIC in microtiter plates (Mycobacterium); settings: DSM43464, 37° C., 3 to 5 days
Procedure: as §3

[11] = test system: Mycobacterium smegmacis DSM 43078; assay: MIC in microtiter plates (Mycobacterium); settings: DSM43078, 37° C., 3 to 5 days
Procedure: as §3

[12] = test system: Mycobacterium smegmacis DSM 43299; assay: MIC in microtiter plates (Mycobacterium); settings: DSM43299, 37° C., 3 to 5 days
Procedure: as §3

[13] = test system: Mycobacterium smegmacis DSM 43277; assay: MIC in microtiter plates (Mycobacterium); settings: DSM43277, 37° C., 3 to 5 days
Procedure: as §3

[14] = Staph. 9TV, 37° C., about 20 hours, read-out: MIC
[15] = Staph. 133, 37° C., about 20 hours, read-out: MIC
[16] = Staph. 48N, 37° C., about 20 hours, read-out: MIC
[17] = Staph. 25701, 37° C., about 20 hours, read-out: MIC
[18] = E. coli Neumann, 37° C., about 20 hours, read-out: MIC

SMILES: COP(=O)(NC[C@H]1CN(c2ccc3c(c2)sc(=O)n3C)C(=O)O1)OC [Example 17]
- MIC ([1]; 20 h): 8 µg/mL (≈ 20.7 µM)
- MIC ([2]; 20 h): 8 µg/mL (≈ 20.7 µM)
- MIC ([3]; 20 h): 8 µg/mL (≈ 20.7 µM)
- MIC ([4]; 20 h): 8 µg/mL (≈ 20.7 µM)
- MIC [5]: > 64 µg/mL
- MIC [6]: > 64 µg/mL
- MIC ([7]; 20 h): > 64 µg/mL

SMILES: CCOC(=O)Cn1c(=O)oc2cc(N3C[C@H](CNC(C)=O)OC3=O)ccc21 [Example 39]
- MIC [1, 14]: 4 µg/mL (≈ 10.6 µM)
- MIC [2, 15]: 4 µg/mL (≈ 10.6 µM)
- MIC [3, 16]: 4 µg/mL (≈ 10.6 µM)
- MIC [4, 17]: 4 µg/mL (≈ 10.6 µM)
- MIC [5]: > 64 µg/mL
- MIC [6]: > 64 µg/mL
- MIC ([7]; 20 h): > 64 µg/mL

SMILES: CCC(=O)NC[C@H]1CN(c2ccc3c(c2)sc(=O)n3C)C(=O)O1 [Example 56]
- MIC [1, 14]: 0.25 µg/mL (≈ 0.745 µM)
- MIC [2, 15]: 0.5 µg/mL (≈ 1.49 µM)
- MIC [3, 16]: 0.5 µg/mL (≈ 1.49 µM)
- MIC [4, 17]: 0.5 µg/mL (≈ 1.49 µM)
- MIC [5]: > 64 µg/mL
- MIC [6]: > 64 µg/mL
- MIC ([7]; 20 h): 64 µg/mL (≈ 191 µM)
- MIC [8]: 0.5 µg/mL (≈ 1.49 µM)
- MIC [9]: 1 µg/mL (≈ 2.98 µM)
- MIC [10]: 4 µg/mL (≈ 11.9 µM)
- MIC [11]: 1 µg/mL (≈ 2.98 µM)
- MIC [12]: 1 µg/mL (≈ 2.98 µM)
- MIC [13]: 0.25 µg/mL (≈ 0.745 µM)

SMILES: COC(=O)NC[C@H]1CN(c2ccc3c(c2)sc(=O)n3C)C(=O)O1 [Example 70]
- MIC [1, 14]: 0.5 µg/mL (≈ 1.48 µM)
- MIC [2, 15]: 0.5 µg/mL (≈ 1.48 µM)
- MIC [3, 16]: 0.5 µg/mL (≈ 1.48 µM)
- MIC [4, 17]: 0.5 µg/mL (≈ 1.48 µM)
- MIC [5]: > 64 µg/mL
- MIC [6]: > 64 µg/mL
- MIC ([7]; 20 h): > 64 µg/mL
- MIC [8]: 1 µg/mL (≈ 2.96 µM)
- MIC [9]: 0.25 µg/mL (≈ 0.741 µM)
- MIC [10]: 8 µg/mL (≈ 23.7 µM)
- MIC [11]: 0.125 µg/mL (≈ 0.371 µM)
- MIC [12]: 2 µg/mL (≈ 5.93 µM)
- MIC [13]: 0.5 µg/mL (≈ 1.48 µM)

SMILES: CC(=O)NC[C@H]1CN(c2ccc3c(c2)oc(=O)n3Cc2ccccc2)C(=O)O1 [Example 38]
- MIC [1, 14]: 1 µg/mL (≈ 2.62 µM)
- MIC [2, 15]: 4 µg/mL (≈ 10.5 µM)
- MIC [3, 16]: 4 µg/mL (≈ 10.5 µM)
- MIC [4, 17]: 4 µg/mL (≈ 10.5 µM)
- MIC [5]: > 64 µg/mL
- MIC [6]: > 64 µg/mL
- MIC ([7]; 20 h): > 64 µg/mL

SMILES: CC(=O)NC[C@H]1CN(c2ccc3c(c2)oc(=S)n3C)C(=O)O1 [Example 43]
- MIC [1, 14]: 0.125 µg/mL (≈ 0.389 µM)
- MIC [2, 15]: 0.25 µg/mL (≈ 0.778 µM)
- MIC [3, 16]: 0.125 µg/mL (≈ 0.389 µM)
- MIC [4, 17]: 0.25 µg/mL (≈ 0.778 µM)
- MIC [5]: > 64 µg/mL
- MIC [6]: > 64 µg/mL
- MIC [7, 18]: > 32 µg/mL

SMILES: CCn1c(=S)sc2cc(N3C[C@H](CNC(C)=O)OC3=O)ccc21 [Example 44]
- MIC [1, 14]: 0.5 µg/mL (≈ 1.42 µM)
- MIC [2, 15]: 0.5 µg/mL (≈ 1.42 µM)
- MIC [3, 16]: 0.5 µg/mL (≈ 1.42 µM)
- MIC [4, 17]: 0.5 µg/mL (≈ 1.42 µM)
- MIC [5]: > 64 µg/mL
- MIC [6]: > 64 µg/mL
- MIC ([7]; 20 h): > 64 µg/mL

SMILES: CCn1c(=O)sc2cc(N3C[C@H](CNC(C)=O)OC3=O)ccc21 [Example 22]
- MIC [1, 14]: 0.5 µg/mL (≈ 1.49 µM)
- MIC [2, 15]: 1 µg/mL (≈ 2.98 µM)
- MIC [3, 16]: 1 µg/mL (≈ 2.98 µM)
- MIC [4, 17]: 1 µg/mL (≈ 2.98 µM)
- MIC [5]: > 64 µg/mL
- MIC [6]: > 64 µg/mL
- MIC ([7]; 20 h): > 64 µg/mL

- MIC [8]: 4 µg/mL (≈ 11.5 µM)
- MIC [9]: 4 µg/mL (≈ 11.5 µM)
- MIC [10]: 16 µg/mL (≈ 46.1 µM)
- MIC [11]: 1 µg/mL (≈ 2.88 µM)
- MIC [12]: 4 µg/mL (≈ 11.5 µM)
- MIC [13]: 2 µg/mL (≈ 5.76 µM)
SMILES: Cn1c(=O)sc2cc(N3C[C@H](CNC(=O)C4CC4)OC3=O)ccc21 [Example 54]

SMILES: CC(=O)NC[C@H]1CN(c2ccc3c(c2)oc(=O)n3C)C(=O)O1 [Example 37]
- MIC [1, 14]: 0.5 µg/mL (≈ 1.64 µM)
- MIC [2, 15]: 1 µg/mL (≈ 3.28 µM)
- MIC [3, 16]: 1 µg/mL (≈ 3.28 µM)
- MIC [4, 17]: 1 µg/mL (≈ 3.28 µM)
- MIC [5]: 64 µg/mL (≈ 210 µM)
- MIC [6]: 64 µg/mL (≈ 210 µM)
- MIC [7, 18]: 16 µg/mL (≈ 52.4 µM)

SMILES: CC(=O)NC[C@H]1CN(c2ccc3[nH]c(=O)oc3c2)C(=O)O1 [Example 24]
- MIC [1, 14]: 16 µg/mL (≈ 54.9 µM)
- MIC ([2]; 20 h): 8 µg/mL (≈ 27.5 µM)
- MIC [3, 16]: 16 µg/mL (≈ 54.9 µM)
- MIC [4, 17]: 16 µg/mL (≈ 54.9 µM)
- MIC [5]: > 64 µg/mL
- MIC [6]: > 64 µg/mL
- MIC ([7]; 20 h): > 64 µg/mL

SMILES: CC(=O)NC[C@H]1CN(c2ccc3c(c2)sc(=O)n3C)C(=O)O1 [Example 18]
- MIC [1, 14]: 0.06 µg/mL (≈ 0.187 µM)
- MIC [2, 15]: 0.25 µg/mL (≈ 0.778 µM)
- MIC [3, 16]: 0.25 µg/mL (≈ 0.778 µM)
- MIC [4, 17]: 0.25 µg/mL (≈ 0.778 µM)
- MIC [5]: > 64 µg/mL
- MIC [6]: > 64 µg/mL
- MIC ([7]; 20 h): > 64 µg/mL
- MIC [8]: 0.5 µg/mL (≈ 1.56 µM)
- MIC [9]: 0.25 µg/mL (≈ 0.778 µM)
- MIC [10]: 1 µg/mL (≈ 3.11 µM)
- MIC [11]: 0.25 µg/mL (≈ 0.778 µM)
- MIC [12]: 1 µg/mL (≈ 3.11 µM)
- MIC [13]: 0.25 µg/mL (≈ 0.778 µM)

SMILES: Cn1c(=O)sc2cc(N3C[C@H](CNC(=O)C4CCC4)OC3=O)ccc21 [Example 62]
- MIC [1, 14]: 0.5 µg/mL (≈ 1.38 µM)
- MIC [2, 15]: 1 µg/mL (≈ 2.77 µM)
- MIC [3, 16]: 1 µg/mL (≈ 2.77 µM)
- MIC [4, 17]: 1 µg/mL (≈ 2.77 µM)
- MIC [5]: > 64 µg/mL
- MIC [6]: > 64 µg/mL
- MIC ([7]; 20 h): > 64 µg/mL

SMILES: CC(=O)NC[C@H]1CN(c2ccc3c(c2)oc(=NC(=O)C2CC2)n3C)C(=O)O1 [Example 94]
- MIC [1, 14]: 0.25 µg/mL (≈ 0.671 µM)
- MIC [2, 15]: 0.5 µg/mL (≈ 1.34 µM)
- MIC [3, 16]: 0.5 µg/mL (≈ 1.34 µM)
- MIC [4, 17]: 0.5 µg/mL (≈ 1.34 µM)
- MIC [5]: > 64 µg/mL
- MIC [6]: > 64 µg/mL
- MIC ([7]; 20 h): 64 µg/mL (≈ 172 µM)

SMILES: CCCCCn1c(=O)oc2cc(N3C[C@H](CNC(C)=O)OC3=O)ccc21 [Example 84]
- MIC [1, 14]: 0.5 µg/mL (≈ 1.38 µM)
- MIC [2, 15]: 1 µg/mL (≈ 2.77 µM)
- MIC [3, 16]: 1 µg/mL (≈ 2.77 µM)
- MIC [4, 17]: 1 µg/mL (≈ 2.77 µM)
- MIC [5]: > 64 µg/mL
- MIC [6]: > 64 µg/mL
- MIC ([7]; 20 h): 64 µg/mL (≈ 177 µM)

SMILES: CC(=O)NC[C@H]1CN(c2ccc3c(c2)oc(=O)n3C(C)C)C(=O)O1 [Example 47]
- MIC [1, 14]: 0.25 µg/mL (≈ 0.75 µM)
- MIC [2, 15]: 0.5 µg/mL (≈ 1.5 µM)
- MIC [3, 16]: 0.5 µg/mL (≈ 1.5 µM)
- MIC [4, 17]: 0.5 µg/mL (≈ 1.5 µM)
- MIC [5]: 64 µg/mL (≈ 192 µM)
- MIC [6]: > 64 µg/mL
- MIC [7, 18]: 32 µg/mL (≈ 96 µM)
